Holding throughout (test): competition pull-down with PIP3 beads, Western blot
Common to all, as to assay type: binding
Background: In western blotting, separated proteins are transferred to a membrane and probed.

The target of test [1] is T1, BTK (Homo sapiens, UniProt Q06187).
T1 construct: native full-length protein in NP40 lysate of washed human platelets, captured on PIP3 beads, Western blot read-out
Conditions: human platelet NP40 lysate; competes with bead-bound PIP3 (about 800 nM); pH 7.4, 4 °C, 5 mM EDTA, 5 mM EGTA.

The target of test [2] is T2, RASA3 (Homo sapiens, UniProt Q14644).
T2 construct: native full-length protein in NP40 lysate of washed human platelets, captured on PIP3 beads, Western blot read-out
T2 sequence (Q14644 2-834): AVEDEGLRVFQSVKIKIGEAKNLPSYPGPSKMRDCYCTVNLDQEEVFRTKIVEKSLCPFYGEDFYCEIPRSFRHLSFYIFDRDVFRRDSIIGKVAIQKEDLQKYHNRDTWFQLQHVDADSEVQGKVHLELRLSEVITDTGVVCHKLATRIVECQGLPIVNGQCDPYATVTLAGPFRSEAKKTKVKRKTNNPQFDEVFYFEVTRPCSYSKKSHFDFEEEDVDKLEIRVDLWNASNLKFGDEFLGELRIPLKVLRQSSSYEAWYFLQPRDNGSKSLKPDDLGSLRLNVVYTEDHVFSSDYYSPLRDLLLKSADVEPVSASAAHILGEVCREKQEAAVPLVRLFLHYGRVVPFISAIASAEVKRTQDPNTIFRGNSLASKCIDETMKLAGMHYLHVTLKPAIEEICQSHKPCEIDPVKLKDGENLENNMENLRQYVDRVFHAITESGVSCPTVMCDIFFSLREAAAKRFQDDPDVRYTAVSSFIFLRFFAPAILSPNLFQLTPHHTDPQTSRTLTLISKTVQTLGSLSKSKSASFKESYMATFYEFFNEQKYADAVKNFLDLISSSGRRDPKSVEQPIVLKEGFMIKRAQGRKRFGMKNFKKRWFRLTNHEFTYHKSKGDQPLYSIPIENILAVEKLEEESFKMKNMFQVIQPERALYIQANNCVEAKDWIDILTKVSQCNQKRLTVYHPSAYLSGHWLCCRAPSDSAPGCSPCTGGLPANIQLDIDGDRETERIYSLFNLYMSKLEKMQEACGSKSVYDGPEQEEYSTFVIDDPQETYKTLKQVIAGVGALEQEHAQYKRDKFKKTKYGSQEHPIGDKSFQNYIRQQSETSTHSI
The settings on record: read-out: % inhibition of extraction at 40 μM.

Test [3] concerns the target T1, BTK. Conditions: human platelet NP40 lysate; competes with bead-bound PIP3 (about 800 nM); pH 7.4, 4 °C, 5 mM EDTA, 5 mM EGTA. This is another data set of the same source.

The structures appear in SMILES notation.

T1 sequence (Q06187 2-659): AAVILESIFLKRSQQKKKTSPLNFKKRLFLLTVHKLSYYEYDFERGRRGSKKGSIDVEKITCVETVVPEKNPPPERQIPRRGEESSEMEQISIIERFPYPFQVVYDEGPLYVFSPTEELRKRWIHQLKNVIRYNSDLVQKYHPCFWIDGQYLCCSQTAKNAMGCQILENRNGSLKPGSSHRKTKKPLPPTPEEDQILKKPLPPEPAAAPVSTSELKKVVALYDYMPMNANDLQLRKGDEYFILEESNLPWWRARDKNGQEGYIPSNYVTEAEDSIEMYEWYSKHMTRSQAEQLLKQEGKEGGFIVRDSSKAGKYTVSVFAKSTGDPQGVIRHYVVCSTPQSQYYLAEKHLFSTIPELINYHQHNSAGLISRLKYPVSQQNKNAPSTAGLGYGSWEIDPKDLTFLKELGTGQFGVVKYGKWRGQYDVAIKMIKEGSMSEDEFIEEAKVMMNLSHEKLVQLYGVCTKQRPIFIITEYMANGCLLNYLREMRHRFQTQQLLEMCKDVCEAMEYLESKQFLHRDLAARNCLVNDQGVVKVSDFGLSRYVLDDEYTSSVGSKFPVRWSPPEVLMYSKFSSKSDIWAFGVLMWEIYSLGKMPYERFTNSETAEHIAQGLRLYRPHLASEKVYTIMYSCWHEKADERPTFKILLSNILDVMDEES

In the case of `CCCCCCCC(=O)OC[C@H](COP(=O)(O)O[C@H]1[C@H](O)[C@@H](OP(=O)(O)O)[C@H](OP(=O)(O)O)[C@@H](OP(=O)(O)O)[C@H]1O)OC(=O)CCCCCCC` [DiC8-PIP3], the “inhibition of extraction by PIP3 beads at 40 μM” value in test [1] is “exogenously added DiC8-PIP3 was marginally less potent at competing with PIP3 beads”.
Consider `O=P(O)(O)OC1[C@H](O)[C@H](OP(=O)(O)O)C(OP(=O)(O)O)[C@H](OP(=O)(O)O)[C@H]1O` (stereo partly drawn) [IP4], for which the inhibition at 40 µM in test [2] is over 90%. Also, the “inhibition of extraction by PIP3 beads” value in test [3] is on record as “IP4 also reduced extraction of the PH domain–bearing tyrosine kinase BTK”.

As a reminder, the inhibition is the share of the control response that was lost under treatment.
